# Laboratory results published in patent US7906656B2, “Iodopyrazolyl carboxanilides” (Bayer CropScience AG, priority 2003, dated 2011).
# Test system: Venturia inaequalis
# Experiment: Venturia test (apple)/protective
# Assay type: in vivo
# Settings: 240 h, protective, application rate 100 g/ha, evaluation 10 days after inoculation, read-out: Efficacy in %
# Method: (§1) To produce a suitable preparation of active compound, 1 part by weight of active compound is mixed with the stated amounts of solvents and emulsifier, and the concentrate is diluted with water to the desired concentration. To test for protective activity, young plants are sprayed with the preparation of active compound at the stated application rate. After the spray coating has dried on, the plants are inoculated with an aqueous conidia suspension of the apple pathogen Venturia inaequalis and then remain in an incubation cabin at about 20° C. and 100% relative atmospheric humidity for 1 day. The plants are then placed in a greenhouse at about 21° C. and a relative atmospheric humidity of about 90%. Evaluation is carried out 10 days after the inoculation. 0% means an efficacy which corresponds to that of the control, whereas an efficacy of 100% means that no infection is observed.
row,Compound,pest or weed control at 100 g/ha [%]
1,CC(CC(C)(C)C)c1ccccc1NC(=O)c1cn(C)nc1I (stereo not drawn) [drawing 69],100
2,CC(C)CC(C)c1ccccc1NC(=O)c1cn(C)nc1I (stereo not drawn) [drawing 70],100
3,Cn1cc(C(=O)Nc2ccccc2-c2ccc(Cl)c(Cl)c2)c(I)n1 [drawing 71],99
4,Cn1cc(C(=O)Nc2ccc(F)cc2-c2ccc(Cl)c(Cl)c2)c(I)n1 [drawing 72],100
5,Cn1cc(C(=O)Nc2ccccc2-c2ccc(F)c(Cl)c2)c(I)n1 [drawing 73],100
6,Cn1cc(C(=O)Nc2ccccc2-c2ccc(Br)cc2)c(I)n1 [drawing 74],100
7,Cn1cc(C(=O)Nc2ccccc2-c2ccc(Cl)c(F)c2)c(I)n1 [drawing 75],100
8,CCCO/N=C/c1ccc(-c2ccccc2NC(=O)c2cn(C)nc2I)cc1F [drawing 76],100
9,Cc1ccc(-c2ccccc2NC(=O)c2cn(C)nc2I)cc1F [drawing 77],97
10,Cn1cc(C(=O)Nc2ccccc2-c2ccc(C(F)(F)F)cc2)c(I)n1 [drawing 78],94
11,Cn1cc(C(=O)Nc2ccccc2-c2ccc(C(F)(F)F)c(F)c2)c(I)n1 [drawing 79],98
12,Cn1cc(C(=O)Nc2ccccc2-c2ccc(Cl)cc2)c(I)n1 [drawing 80],100
13,Cn1cc(C(=O)Nc2ccccc2-c2ccc(I)cc2)c(I)n1 [drawing 81],99
14,CC(C)CCc1ccccc1NC(=O)c1cn(C)nc1I [drawing 82],98
15,CC1CC(C)(C)c2cccc(NC(=O)c3cn(C)nc3I)c21 (stereo not drawn) [drawing 83],100
16,CC(C)CC(C)c1cc(F)ccc1NC(=O)c1cn(C)nc1I (stereo not drawn) [drawing 84],100

# Test system: Botrytis cinerea
# Experiment: Botrytis test (bean)/protective
# Assay type: in vivo
# Settings: 48 h, protective, application rate 500 g/ha, evaluation 2 days after inoculation, read-out: Efficacy in %
# Method: To produce a suitable preparation of active compound, 1 part by weight of active compound is mixed with the stated amounts of solvents and emulsifier, and the concentrate is diluted with water to the desired concentration. To test for protective activity, young plants are sprayed with the preparation of active compound at the stated application rate. After the spray coating has dried on, 2 small pieces of agar colonized with Botrytis cinerea are placed onto each leaf. The inoculated plants are placed in a darkened chamber at about 20° C. and 100% relative atmospheric humidity. 2 days after the inoculation, the size of the infected areas on the leaves is evaluated. 0% means an efficacy which corresponds to that of the control, whereas an efficacy of 100% means that no infection is observed.
row,Compound,pest or weed control at 500 g/ha [%]
1,CC(CC(C)(C)C)c1ccccc1NC(=O)c1cn(C)nc1I (stereo not drawn) [drawing 85],100
2,CC(C)CC(C)c1ccccc1NC(=O)c1cn(C)nc1I (stereo not drawn) [drawing 86],100

# Test system: not listed separately
# Experiment: log P determination by HPLC on reversed-phase column (EEC directive 79/831 Annex V.A8)
# Assay type: physicochemical
# Settings: pH 2.3; HPLC reversed-phase C18, 43° C.
# Method: The given log P values were determined in accordance with EEC directive 79/831 Annex V.A8 by HPLC (High Performance Liquid Chromatography) on a reversed-phase column (C18). Temperature: 43° C. Mobile phases for the determination in the acidic range (pH 2.3): 0.1% aqueous phosphoric acid, acetonitrile; linear gradient from 10% acetonitrile to 90% acetonitrile. Calibration was carried out using unbranched alkan-2-ones (having 3 to 16 carbon atoms) with known log P values (determination of the log P values by the retention times using linear interpolation between two successive alkanones).
row,logP,Compound
1,3.64,CC(CC(C)(C)C)c1ccccc1NC(=O)c1cn(C)nc1I (stereo not drawn) [Compound 1]
2,3.38,Cn1cc(C(=O)Nc2ccccc2-c2ccc(Cl)c(Cl)c2)c(I)n1 [Compound 2]
3,3.09,Cn1cc(C(=O)Nc2ccccc2-c2ccc(Cl)c(F)c2)c(I)n1 [Compound 3]
4,3.36,CC(C)CC(C)c1ccccc1NC(=O)c1cn(C)nc1I (stereo not drawn) [Compound 4]
5,4.00,CCCON=Cc1ccc(-c2ccccc2NC(=O)c2cn(C)nc2I)cc1F [Compound 5]
6,3.18,Cc1ccc(-c2ccccc2NC(=O)c2cn(C)nc2I)cc1F [Compound 7]
7,3.09,Cn1cc(C(=O)Nc2ccccc2-c2ccc(F)c(Cl)c2)c(I)n1 [Compound 8]
8,3.20,Cn1cc(C(=O)Nc2ccccc2-c2ccc(Br)cc2)c(I)n1 [Compound 9]
9,3.24,Cn1cc(C(=O)Nc2ccccc2-c2ccc(C(F)(F)F)cc2)c(I)n1 [Compound 10]
10,3.23,Cn1cc(C(=O)Nc2ccccc2-c2ccc(C(F)(F)F)c(F)c2)c(I)n1 [Compound 11]
11,3.62,CC(=CC(C)C)c1ccccc1NC(=O)c1cn(C)nc1I [Compound 12]
12,2.54,C=C(C)CC(C)(O)c1ccccc1NC(=O)c1cn(C)nc1I (stereo not drawn) [Compound 13]
13,3.08,Cn1cc(C(=O)Nc2ccccc2-c2ccc(Cl)cc2)c(I)n1 [Compound 14]
14,3.08,CC(CC1CC1)c1ccccc1NC(=O)c1cn(C)nc1I (stereo not drawn) [Compound 15]
15,3.36,Cn1cc(C(=O)Nc2ccccc2-c2ccc(I)cc2)c(I)n1 [Compound 16]
16,2.99,Cn1cc(C(=O)Nc2ccccc2-c2cccc(Cl)c2F)c(I)n1 [Compound 17]
17,3.34,Cn1cc(C(=O)Nc2ccccc2CCC(C)(C)C)c(I)n1 [Compound 18]
18,3.27,CC1CC(C)(C)c2cccc(NC(=O)c3cn(C)nc3I)c21 (stereo not drawn) [Compound 19]
19,3.68,CC(=O)N(C(=O)c1cn(C)nc1I)c1ccccc1C(C)CC(C)C (stereo not drawn) [Compound 21]
20,3.79,Cn1cc(C(=O)Nc2ccccc2C#CC(C)(C)C)c(I)n1 [Compound 22]
21,3.70,CON=C(c1ccc(-c2ccccc2NC(=O)c2cn(C)nc2I)cc1)C(F)(F)F [Compound 23]
22,3.15,CC(C)CCc1ccccc1NC(=O)c1cn(C)nc1I [Compound 24]
23,3.28,C=C(c1ccccc1NC(=O)c1cn(C)nc1I)C(C)C [Compound 25]
24,3.82,C=C(CC(C)(C)C)c1ccccc1NC(=O)c1cn(C)nc1I [Compound 26]
25,3.40,CC(C)=C(C)c1ccccc1NC(=O)c1cn(C)nc1I [Compound 27]
26,3.34,Cn1cc(C(=O)Nc2ccccc2-c2cccc(Cl)c2Cl)c(I)n1 [Compound 28]
27,3.55,Cn1cc(C(=O)Nc2ccccc2-c2ccc(C(F)(F)F)cc2Cl)c(I)n1 [Compound 30]
28,3.45,Cn1cc(C(=O)Nc2ccccc2-c2ccc(Br)c(Cl)c2)c(I)n1 [Compound 31]
29,3.56,Cn1cc(C(=O)Nc2ccccc2-c2ccc(Br)cc2Cl)c(I)n1 [Compound 32]

row,Compound,logP
1,CC(C)CC(C)c1cc(F)ccc1NC(=O)c1cn(C)nc1I (stereo not drawn) [Compound 20],3.39

# Same assay, conditions: reversed-phase C18 HPLC column; pH 2.3; HPLC reversed-phase C18, 43° C.
row,chromatographic logP,Compound
1,0.57,Cn1cc(C(=O)O)c(I)n1 [3-iodo-1-methyl-1H-pyrazole-4-carboxylic acid]
2,3.42,"Cn1cc(C(=O)Nc2ccc(F)cc2-c2ccc(Cl)c(Cl)c2)c(I)n1 [Compound 6, N-(3′,4′-dichloro-5-fluoro-1,1′-biphenyl-2-yl)-3-iodo-1-methyl-1H-pyrazole-4-carboxamide]"
3,2.31,CCOC(=O)/C(C#N)=C\N(C)/N=C/c1ccccc1 [ethyl 3-(N′-benzylidene-N-methylhydrazino)-2-cyanoacrylate]
4,0.72,CCOC(=O)c1cn(C)nc1N [ethyl 3-amino-1-methyl-1H-pyrazole-4-carboxylate]
5,1.74,CCOC(=O)c1cn(C)nc1I [ethyl 3-iodo-1-methyl-1H-pyrazole-4-carboxylate]

# Test system: Podosphaera leucotricha
# Experiment: Podosphaera test (apple)/protective
# Assay type: in vivo
# Settings: 240 h, protective, application rate 100 g/ha, evaluation 10 days after inoculation, read-out: Efficacy in %
# Method: as §1, with “spore” for “conidia”, “apple mildew” for “apple”, “Podosphaera leucotricha.” for “Venturia inaequalis and then remain in an incubation cabin at about 20° C. and 100% relative atmospheric humidity for 1 day.”, “23°” for “21°”, “70%.” for “90%.”
row,Compound,pest or weed control at 100 g/ha [%]
1,CC(CC(C)(C)C)c1ccccc1NC(=O)c1cn(C)nc1I (stereo not drawn) [drawing 53],100
2,CC(C)CC(C)c1ccccc1NC(=O)c1cn(C)nc1I (stereo not drawn) [drawing 54],100
3,Cn1cc(C(=O)Nc2ccccc2-c2ccc(Cl)c(Cl)c2)c(I)n1 [drawing 55],99
4,Cn1cc(C(=O)Nc2ccc(F)cc2-c2ccc(Cl)c(Cl)c2)c(I)n1 [drawing 56],100
5,Cn1cc(C(=O)Nc2ccccc2-c2ccc(F)c(Cl)c2)c(I)n1 [drawing 57],100
6,Cn1cc(C(=O)Nc2ccccc2-c2ccc(Br)cc2)c(I)n1 [drawing 58],100
7,Cn1cc(C(=O)Nc2ccccc2-c2ccc(Cl)c(F)c2)c(I)n1 [drawing 59],100
8,CCCO/N=C/c1ccc(-c2ccccc2NC(=O)c2cn(C)nc2I)cc1F [drawing 60],100
9,Cc1ccc(-c2ccccc2NC(=O)c2cn(C)nc2I)cc1F [drawing 61],100
10,Cn1cc(C(=O)Nc2ccccc2-c2ccc(C(F)(F)F)cc2)c(I)n1 [drawing 62],88
11,Cn1cc(C(=O)Nc2ccccc2-c2ccc(C(F)(F)F)c(F)c2)c(I)n1 [drawing 63],99
12,Cn1cc(C(=O)Nc2ccccc2-c2ccc(Cl)cc2)c(I)n1 [drawing 64],100
13,Cn1cc(C(=O)Nc2ccccc2-c2ccc(I)cc2)c(I)n1 [drawing 65],100
14,CC(C)CCc1ccccc1NC(=O)c1cn(C)nc1I [drawing 66],98
15,CC1CC(C)(C)c2cccc(NC(=O)c3cn(C)nc3I)c21 (stereo not drawn) [drawing 67],100
16,CC(C)CC(C)c1cc(F)ccc1NC(=O)c1cn(C)nc1I (stereo not drawn) [drawing 68],100
